Among the data in patent US20020151534A1, “Antithrombotic compounds” (priority 2001, published 2002) are IC50 values, retold here.

Broadly, the IC50 is the point on the concentration scale where inhibition reaches its midpoint.

The test has as its target T1, human factor Xa (Homo sapiens, UniProt P00742).
T1 construct: released from the colourless chromogenic substrate by human factor Xa; purchased Roche
Briefly: Inhibition of factor Xa, enzyme-kinetic measurement with chromogenic substrate. The format is biochemical. As to conditions: substrate Chromozym X 200 μMol/l, pNA release at 405 nm, pH 8.0, 37° C. The method, then: Enzyme-kinetic measurement with chromogenic substrate. The quantity of anp-nitroaniline (pNA) released from the colourless chromogenic substrate by human factor Xa is determined photometrically at 405 nm. It is proportional to the activity of the enzyme used. The inhibition of the enzyme activity by the test substance I (in relation to the solvent control) is determined at various concentrations of test substance and from this the IC50 is calculated, as the concentration which inhibits the factor Xa used by 50%.
Tris(hydroxymethyl)-aminomethane buffer (100 mmol) and sodium chloride (150 mMol), pH 8.0
Factor Xa (Roche), spec. activity: 10 U/0.5 ml, final concentration: 0.175 U/ml for each reaction mixture
Substrate Chromozym X (Roche), final concentration: 200 μMol/l for each reaction mixture
10 μl of a 23.5-times concentrated starting solution of the test substance or solvent (control), 175 μl of tris(hydroxymethyl)-aminomethane buffer and 25 μl of a 1.65 U/ml Factor Xa working solution are incubated for 10 minutes at 37° C. After the addition of 25 μl of Chromozym X working solution ([…]) the sample is measured in a photometer (SpectraMax 250) at 405 nm for 150 seconds at 37° C.
1. Determining the maximum increase (deltaOD/minutes) over 3 measuring points.
2. Determining the % inhibition based on the solvent control.
3. Plotting a dosage/activity curve (% inhibition vs substance concentration).
4. Determining the IC50 by interpolating the X value (substance concentration) of the dosage/activity curve at Y=50% inhibition.

T1 sequence (P00742 235-488 limits assumed): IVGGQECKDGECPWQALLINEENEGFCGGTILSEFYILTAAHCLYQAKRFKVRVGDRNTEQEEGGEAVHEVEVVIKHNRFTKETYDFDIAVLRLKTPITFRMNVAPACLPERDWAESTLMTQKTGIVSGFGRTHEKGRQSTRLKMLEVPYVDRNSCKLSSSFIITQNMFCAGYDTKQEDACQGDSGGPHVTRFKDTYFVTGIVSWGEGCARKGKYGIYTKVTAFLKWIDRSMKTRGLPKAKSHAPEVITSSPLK
T1 sequence (P00742 41-179 partner limits assumed): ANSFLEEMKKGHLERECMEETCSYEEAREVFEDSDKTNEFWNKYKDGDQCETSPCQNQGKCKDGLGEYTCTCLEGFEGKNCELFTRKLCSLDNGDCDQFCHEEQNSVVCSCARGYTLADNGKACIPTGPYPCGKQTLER

`Cc1cc(C(=O)NCc2cc(C(=N)N)ccc2O)ccc1C(=O)N1CCCC1` [(2)] showed an IC50 of 0.014 µM.

Turning to `Cc1cc(C(=O)NC(CC(=O)O)c2cccc(C(=N)N)c2)ccc1C(=O)N1CCCC1` (centres unmarked) [(5)], half-maximal inhibition (IC50) required 0.031 µM. The value for `CCOC(=O)CCC(=O)N(c1ccc(C(=O)NCc2cc(C(=N)N)ccc2O)cc1C)C1CCCC1` [(3)] was 0.075 µM; that for `Cc1cc(NCCc2cc(C(=N)N)ccc2O)ccc1C(=O)N1CCCC1` [(1)] was 0.084 µM; that for `N=C(N)c1ccc(O)c(CNC(=O)c2ccc(C(=O)N3CCCC3)c(Cl)c2)c1` [(4)] was 0.01 µM.
